From patent publication US20180291335A1, “MODIFIED POLYNUCLEOTIDES FOR ALTERING CELL PHENOTYPE” (ModernaTX, Inc., priority 2012, published 2018)

Tests used:
[1] = tested on: Rabbit Reticulocyte Lysate; assay: In vitro screening in rabbit reticulocyte lysates, luciferase mRNA translation; format: biochemical; conditions: 250 ng luciferase mRNA, 60 minutes, 30° C.
Method: The diluted luciferase was added to 40 ul of freshly prepared Rabbit Reticulocyte Lysate and the in vitro translation reaction was done in a standard 1.5 mL polypropylene reaction tube (Thermo Fisher Scientific, Waltham, Mass.) at 30° C. in a dry heating block. The translation assay was done with the Rabbit Reticulocyte Lysate (nuclease-treated) kit (Promega, Madison, Wis.) according to the manufacturer's instructions. The reaction buffer was supplemented with a one-to-one blend of provided amino acid stock solutions devoid of either Leucine or Methionine resulting in a reaction mix containing sufficient amounts of both amino acids to allow effective in vitro translation.
After 60 minutes of incubation, the reaction was stopped by placing the reaction tubes on ice. Aliquots of the in vitro translation reaction containing luciferase modified RNA were transferred to white opaque polystyrene 96-well plates (Corning, Manassas, Va.) and combined with 100 ul complete luciferase assay solution (Promega, Madison, Wis.). The volumes of the in vitro translation reactions were adjusted or diluted until no more than 2 mio relative light units (RLUs) per well were detected for the strongest signal producing samples and the RLUs for each chemistry tested are shown in Table 20. The plate reader was a BioTek Synergy H1 (BioTek, Winooski, Vt.). The background signal of the plates without reagent was about 200 relative light units per well.

[2] = tested on: HeLa cells; assay: In vitro screening in HeLa cells, luciferase modified RNA; format: cell-based, human; parameters: key to Protein (Luc; HeLa): the protein production of HeLa is judged by “+,” “+1-” and “−”; the protein production of HeLa is judged by “+,” “+1-” and “−”; the protein production of HeLa is judged by “+,” “+1-” and “−”; conditions: for RLU: HeLa cells, 83 ng luciferase modified RNA, 18 to 22 hours
Method: The day before transfection, 20,000 HeLa cells (ATCC no. CCL-2; Manassas, Va.) were harvested by treatment with Trypsin-EDTA solution (LifeTechnologies, Grand Island, N.Y.) and seeded in a total volume of 100 ul EMEM medium (supplemented with 10% FCS and 1× Glutamax) per well in a 96-well cell culture plate (Corning, Manassas, Va.). The cells were grown at […] in 5% CO2 atmosphere overnight. […] Lipofectamine 2000 (LifeTechnologies, Grand Island, N.Y.) was used as transfection reagent and 0.2 ul were diluted in 10 ul final volume of OPTI-MEM. After 5 minutes of incubation at room temperature, both solutions were combined and incubated an additional 15 minute at room temperature. Then the 20 ul combined solution was added to the 100 ul cell culture medium containing the HeLa cells and incubated at room temperature.
After 18 to 22 hours of incubation cells expressing luciferase were lysed with 100 ul of Passive Lysis Buffer (Promega, Madison, Wis.) according to manufacturer instructions. Aliquots of the lysates were transferred to white opaque polystyrene 96-well plates (Corning, Manassas, Va.) and combined with 100 ul complete luciferase assay solution (Promega, Madison, Wis.). The lysate volumes were adjusted or diluted until no more than 2 mio relative light units (RLU) per well were detected for the strongest signal producing samples and the RLUs for each chemistry tested are shown in Table 19. The plate reader was a BioTek Synergy H1 (BioTek, Winooski, Vt.). The background signal of the plates without reagent was about 200 relative light units per well.

[3] = tested on: interferon-alpha (IFN-α); assay: In vitro screening in PBMC: interferon-alpha induction by ELISA; format: cell-based, human
From the text: (§1) The supernatant was harvested and stored frozen until analyzed by ELISA to determine the G-CSF protein expression, and the induction of the cytokines interferon-alpha (IFN-α) and tumor necrosis factor alpha (TNF-α).

[4] = tested on: HeLa cells; assay: G-CSF modified mRNA transfected in HeLa cells, G-CSF ELISA; format: cell-based, human; parameters: key to Protein (G-CSF; HeLa): the protein production of HeLa is judged by “+,” “+1-” and “−”; the protein production of HeLa is judged by “+,” “+1-” and “−”; the protein production of HeLa is judged by “+,” “+1-” and “−”
Method: To assess the activity of all our different chemical modifications in the context of a second open reading frame, we replicated experiments previously conducted using luciferase mRNA, with human G-CSF mRNA. […] The mutant T7 polymerase was obtained commercially (Durascribe® T7 Transcription kit (Cat. No. DS010925) (Epicentre®, Madison, Wis.).
The modified RNA in Tables 27 and 28 were transfected in vitro in HeLa cells or added to rabbit reticulysates (250 ng of modified mRNA) as indicated. […] In Table 27, “NT” means not tested.

[5] = tested on: peripheral blood mononuclear cells (PBMC); assay: In vitro screening in PBMC: G-CSF protein expression by ELISA; format: cell-based, human; conditions: Table 30, non-naturally occurring chemistries; G-CSF modified mRNA in PBMC; background about 110 pg/ml
From the text: as §1

[6] = tested on: IFN-alpha; assay: In vitro PBMC study, percent modification: IFN-alpha expression by ELISA; format: cell-based, human
Method: (§2) The supernatant was harvested and run by ELISA 22 hours after transfection to determine the protein expression.

[7] = tested on: peripheral blood mononuclear cells (PBMC); assay: In vitro PBMC study, percent modification: G-CSF expression by ELISA; format: cell-based, human; conditions: for G-CSF Expression: 22 hours after transfection
Method: 480 ng of G-CSF mRNA modified with 5-methylcytosine (5mC) and pseudouridine (pseudoU) or unmodified G-CSF mRNA was transfected with 0.4 uL of Lipofectamine 2000 into peripheral blood mononuclear cells (PBMC) from three normal blood donors (D1, D2, and D3). […] The supernatant was harvested and run by ELISA 22 hours after transfection to determine the protein expression. The expression of IFN-alpha and TNF-alpha may be a secondary effect from the transfection of the G-CSF mRNA.

[8] = tested on: TNF-alpha; assay: In vitro PBMC study, percent modification: TNF-alpha expression by ELISA; format: cell-based, human
Method: as §2

[9] = Table 30, non-naturally occurring chemistries, IFN-alpha from G-CSF modified mRNA in PBMC, background about 70 pg/ml
[10] = Table 30, non-naturally occurring chemistries, luciferase modified mRNA in HeLa, ** = second result, IVT with mutant T7 polymerase
[11] = Table 30, non-naturally occurring chemistries, G-CSF modified mRNA in HeLa
[12] = PBMC donor D1, 22 hours after transfection
[13] = PBMC donor D2, 22 hours after transfection
[14] = PBMC donor D3, 22 hours after transfection
[15] = PBMC, protein/cytokine ratio from averages

Molecule: 5 (2 carbovinyl) uridine: Luciferase mRNA (SEQ ID NO: 409) modified with 5 (2 carbovinyl) uridine
- RLU [1]: 225 RLU
- RLU [2]: 531 RLU

Molecule: N^6-methyladenosine (m^6A)
- Cytokines (G-CSF; PBMC) ([3]; summary grade, IFN-alpha, G-CSF mRNA in PBMC): ++++ (“++++” means greater than 1,000 pg/ml interferon-alpha (IFN-alpha))
- Protein (Luc; HeLa) ([2]; summary grade, luciferase mRNA in HeLa): −
- Protein (G-CSF; HeLa) ([4]; summary grade, G-CSF mRNA in HeLa): −

Molecule: COC(=O)C=Cc1cn([C@@H]2O[C@H](CO)[C@@H](O)[C@H]2O)c(=O)[nH]c1=O [5-(2-carbomethoxyvinyl) Uridine]
- Cytokines (G-CSF; PBMC) [3, 9]: − (“−” means less than 100 pg/ml)
- Protein (Luc; HeLa) [2, 10]: −
- Protein (G-CSF; HeLa) [4, 11]: −

Molecule: 5 (3-1E propenyl Amino) uridine: Luciferase mRNA (SEQ ID NO: 409) modified with 5 (3-1E propenyl Amino) uridine
- RLU [1]: 211 RLU
- RLU [2]: 446 RLU

Molecule: N4-acetylcytidine (ac4c): Luciferase mRNA (SEQ ID NO: 409) modified with N4-acetylcytidine
- RLU [1]: 60,879 RLU
- RLU [2]: 235,412 RLU

Molecule: N6-methyladenosine (m6a): Luciferase mRNA (SEQ ID NO: 409) modified with N6-methyladenosine
- RLU [1]: 398 RLU
- RLU [2]: 534 RLU

Molecule: 2′-F-adenosine
- Protein (Luc; HeLa) [2, 10]: −**

Molecule: 5-methylcytidine (m5c): Luciferase mRNA (SEQ ID NO: 409) modified with 5-methylcytidine
- RLU [1]: 152,989 RLU
- RLU [2]: 138,428 RLU

Molecule: 5-Br-Uridine [Compound 5-Br-Uridine]
- Cytokines (G-CSF; PBMC) [3, 9]: + (“+” means greater than 100 pg/ml IFN-alpha)
- Protein (Luc; HeLa) [2, 10]: +
- Protein (G-CSF; HeLa) [4, 11]: +
- Protein (G-CSF; PBMC) [5]: + (“+” means greater than 300 pg/ml G-CSF)

B1: 25% modification: G-CSF mRNA (SEQ ID NO: 408) partially modified with 5mC and pseudoU, 25% modification (nucleic acid)
chain: GGGAAAUAAGAGAGAAAAGAAGAGUAAGAAGAAAUAUAAGAGCCACCAUGGCCGGUCCCGCGACCCAAAGCCCCAUGAAACUUAUGGCCCUGCAGUUGCUGCUUUGGCACUCGGCCCUCUGGACAGUCCAAGAAGCGACUCCUCUCGGACCUGCCUCAUCGUUGCCGCAGUCAUUCCUUUUGAAGUGUCUGGAGCAGGUGCGAAAGAUUCAGGGCGAUGGAGCCGCACUCCAAGAGAAGCUCUGCGCGACAUACAAACUUUGCCAUCCCGAGGAGCUCGUACUGCUCGGGCACAGCUUGGGGAUUCCCUGGGCUCCUCUCUCGUCCUGUCCGUCGCAGGCUUUGCAGUUGGCAGGGUGCCUUUCCCAGCUCCACUCCGGUUUGUUCUUGUAUCAGGGACUGCUGCAAGCCCUUGAGGGAAUCUCGCCAGAAUUGGGCCCGACGCUGGACACGUUGCAGCUCGACGUGGCGGAUUUCGCAACAACCAUCUGGCAGCAGAUGGAGGAACUGGGGAUGGCACCCGCGCUGCAGCCCACGCAGGGGGCAAUGCCGGCCUUUGCGUCCGCGUUUCAGCGCAGGGCGGGUGGAGUCCUCGUAGCGAGCCACCUUCAAUCAUUUUUGGAAGUCUCGUACCGGGUGCUGAGACAUCUUGCGCAGCCGUGAAGCGCUGCCUUCUGCGGGGCUUGCCUUCUGGCCAUGCCCUUCUUCUCUCCCUUGCACCUGUACCUCUUGGUCUUUGAAUAAAGCCUGAGUAGGAAG
modifications: 25% 5mC and pseudoU modification; Description of Artificial Sequence: Synthetic Transcript Sequence
- IFN-alpha Expression [6, 12]: 564.3 pg/mL
- IFN-alpha Expression [6, 13]: 400.4 pg/mL
- IFN-alpha Expression [6, 14]: 670.7 pg/mL
- Average IFN-a ([6]; PBMC, average of three donors): 545 pg/mL
- G-CSF/IFN-alpha (PC ratio) [6, 15]: 0.2
- G-CSF Expression ([7]; PBMC donor D1, 480 ng mRNA): 139.3 pg/mL
- G-CSF Expression ([7]; PBMC donor D2, 480 ng mRNA): 126.9 pg/mL
- G-CSF Expression ([7]; PBMC donor D3, 480 ng mRNA): 102.0 pg/mL
- Average G-CSF ([7]; PBMC, average of three donors): 122 pg/mL
- TNF-alpha Expression [8, 12]: 85.6 pg/mL
- TNF-alpha Expression [8, 13]: 26.6 pg/mL
- TNF-alpha Expression [8, 14]: 19.8 pg/mL
- Average TNF-a ([8]; PBMC, average of three donors): 44 pg/mL
- G-CSF/TNF-alpha (PC ratio) [8, 15]: 2.8

B2: 2′Fluoroguanine triphosphate/pseudouridine: G-CSF mRNA (SEQ ID NO: 408) fully modified with the named combination (nucleic acid)
chain: GGGAAAUAAGAGAGAAAAGAAGAGUAAGAAGAAAUAUAAGAGCCACCAUGGCCGGUCCCGCGACCCAAAGCCCCAUGAAACUUAUGGCCCUGCAGUUGCUGCUUUGGCACUCGGCCCUCUGGACAGUCCAAGAAGCGACUCCUCUCGGACCUGCCUCAUCGUUGCCGCAGUCAUUCCUUUUGAAGUGUCUGGAGCAGGUGCGAAAGAUUCAGGGCGAUGGAGCCGCACUCCAAGAGAAGCUCUGCGCGACAUACAAACUUUGCCAUCCCGAGGAGCUCGUACUGCUCGGGCACAGCUUGGGGAUUCCCUGGGCUCCUCUCUCGUCCUGUCCGUCGCAGGCUUUGCAGUUGGCAGGGUGCCUUUCCCAGCUCCACUCCGGUUUGUUCUUGUAUCAGGGACUGCUGCAAGCCCUUGAGGGAAUCUCGCCAGAAUUGGGCCCGACGCUGGACACGUUGCAGCUCGACGUGGCGGAUUUCGCAACAACCAUCUGGCAGCAGAUGGAGGAACUGGGGAUGGCACCCGCGCUGCAGCCCACGCAGGGGGCAAUGCCGGCCUUUGCGUCCGCGUUUCAGCGCAGGGCGGGUGGAGUCCUCGUAGCGAGCCACCUUCAAUCAUUUUUGGAAGUCUCGUACCGGGUGCUGAGACAUCUUGCGCAGCCGUGAAGCGCUGCCUUCUGCGGGGCUUGCCUUCUGGCCAUGCCCUUCUUCUCUCCCUUGCACCUGUACCUCUUGGUCUUUGAAUAAAGCCUGAGUAGGAAG
modifications: 2'-fluoroguanine/pseudouridine modified; Description of Artificial Sequence: Synthetic Transcript Sequence
- G-CSF protein (pg/ml) HeLa cells ([4]; HeLa cells, combination chemistries, ELISA): 1,136 pg/ml
